For assay [1], the target named is T1, Microphthalmia-associated transcription factor (Homo sapiens, UniProt O75030).
T1 sequence (O75030 whole entry): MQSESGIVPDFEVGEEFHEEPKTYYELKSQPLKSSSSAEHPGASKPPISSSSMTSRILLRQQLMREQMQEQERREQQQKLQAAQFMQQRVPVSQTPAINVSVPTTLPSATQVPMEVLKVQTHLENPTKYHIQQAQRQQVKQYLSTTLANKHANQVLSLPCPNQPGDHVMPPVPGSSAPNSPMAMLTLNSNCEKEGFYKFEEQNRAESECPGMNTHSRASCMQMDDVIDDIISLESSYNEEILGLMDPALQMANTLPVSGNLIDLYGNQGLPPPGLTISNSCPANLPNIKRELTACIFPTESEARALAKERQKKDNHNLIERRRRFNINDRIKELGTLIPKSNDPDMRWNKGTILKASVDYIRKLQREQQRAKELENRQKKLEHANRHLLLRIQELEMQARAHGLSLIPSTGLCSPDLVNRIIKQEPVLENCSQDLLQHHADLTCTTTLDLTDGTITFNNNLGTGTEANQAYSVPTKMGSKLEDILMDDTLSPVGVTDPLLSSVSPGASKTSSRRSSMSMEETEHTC
In words: reducers of TRPM1 reporter luminescence, concentration series – cell-based, SK-MEL-5, cherry-picked, set 3, MITF inhibitor project, dose response (AID 493073).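 Further: SK-MEL-5 melanoma cells with luciferase driven by the MITF target TRPM1 promoter.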 The format is functional.

The target of assay [2] is Voltage-dependent T-type calcium channel subunit alpha-1H (Homo sapiens, UniProt O95180). It is filed as functional.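 Further: channel activity triggered by adding a high calcium stimulation buffer.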
The target of assay [3] is T2, Polyadenylate-binding protein 1 (Homo sapiens, UniProt P11940). In words: MLLE binding blockers, Cy5 peptide tracer – biochemical, fluorescence polarization, Cy5-PAM2 peptide, secondary, miRNA deadenylation inhibitor project, dose response (AID 602260). To be noted: read-out: IC50_Mean. The format is functional.
Assay [4] has as its target T2, Polyadenylate-binding protein 1. In words: MLLE domain peptide-binding blockers, IC50 – biochemical, fluorescence polarization, FITC-PAM2 peptide, dose response (AID 602259). The note with it: read-out: IC50_Mean. It is filed as functional. On the technique in general: Fluorescence polarisation rises when a labelled molecule tumbles more slowly, as on binding a larger partner.

In assay [5] the target is T3, Carboxy-terminal domain RNA polymerase II polypeptide A small phosphatase 1 (Homo sapiens, UniProt Q9GZU7).
T3 sequence (Q9GZU7 whole entry): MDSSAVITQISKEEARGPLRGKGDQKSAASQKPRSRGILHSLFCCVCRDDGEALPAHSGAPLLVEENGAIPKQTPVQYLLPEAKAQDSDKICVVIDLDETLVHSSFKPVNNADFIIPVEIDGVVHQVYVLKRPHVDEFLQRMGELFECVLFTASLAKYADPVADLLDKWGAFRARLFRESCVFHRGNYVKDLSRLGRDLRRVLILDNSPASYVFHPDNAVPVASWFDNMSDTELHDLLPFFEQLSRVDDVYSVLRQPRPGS
In words: CTDSP1 inhibitors, concentration-response, biochemical, absorbance readout, ultra-high-throughput screen actives (AID 540297). The format is functional.

Assay [6] concerns the target T4, Heat shock factor protein 1 (Mus musculus, UniProt P38532).
T4 sequence (P38532 whole entry): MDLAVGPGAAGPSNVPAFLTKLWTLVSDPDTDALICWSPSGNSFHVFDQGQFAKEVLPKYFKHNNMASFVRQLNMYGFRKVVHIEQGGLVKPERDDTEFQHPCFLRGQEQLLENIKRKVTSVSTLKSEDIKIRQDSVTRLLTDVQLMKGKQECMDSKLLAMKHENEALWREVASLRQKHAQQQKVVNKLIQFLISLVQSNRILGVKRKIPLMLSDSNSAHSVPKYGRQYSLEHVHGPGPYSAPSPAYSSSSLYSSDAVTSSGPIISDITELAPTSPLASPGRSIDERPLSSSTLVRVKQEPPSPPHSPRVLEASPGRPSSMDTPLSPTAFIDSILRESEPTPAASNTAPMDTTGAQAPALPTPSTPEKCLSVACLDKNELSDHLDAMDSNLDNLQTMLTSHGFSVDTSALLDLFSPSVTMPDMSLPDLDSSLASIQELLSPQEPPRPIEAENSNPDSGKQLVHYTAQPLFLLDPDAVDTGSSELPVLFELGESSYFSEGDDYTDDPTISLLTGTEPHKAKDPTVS
Briefly: decrease of HSF1-responsive luciferase luminescence – cell-based, NIH3T3, dose retest, confirmation (AID 2382).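 Further: NIH3T3 fibroblasts with HSF1-driven luciferase reporter stressed by proteasome inhibitor MG132; luminescence from HSF1-driven luciferase expression after 8 hours of MG132 stress.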 It is filed as functional.

In another assay the target is Cytochrome P450 3A4 (Homo sapiens, UniProt P08684).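 Further: CYP3A4 tested as one member of a cytochrome P450 panel screen.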
The nature of assay [7]: Luminescence Cell-Based Dose Confirmation HTS to Identify Activators of 5'UTR Stem-Loop Driven Alpha-Synuclein mRNA Translation in H4 Neuroglioblastoma Cells. [Related pubchem assays: 1829 (Project Summary), 1814 (Primary HTS)]. The format is functional.
Assay [8] in a line: Luminescence Cell-Based Dose Response HTS to Identify Activators of Luciferase Translation or Activity in H4 […] Cells. [Related pubchem assays: 1829 (Project Summary), 1814 (Primary HTS)]. It is filed as functional.
The subject of the next assay is H4. Briefly: Luminescence Cell-Based Dose Response HTS to Identify Activators of 5'UTR Stem-Loop Driven Prion Protein mRNA Translation in H4 Neuroglioblastoma Cells. [Related pubchem assays: 1829 (Project Summary), 1814 (Primary HTS)]. It is filed as functional. The note with it: Homo sapiens.
For a further assay, the system named is INS1. Briefly: INS-1E survival protection against cytokine death – cell-based, luminescence, retest, dose response (AID 449756).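 Further: cell death triggered by IL-1 beta plus TNF-alpha plus IFN-gamma mixture; protective hits raise ATP signal compared with cytokine alone wells.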 It is filed as functional. To be noted: Rattus norvegicus.
The nature of assay [9]: reduction of Shn3 3'UTR-driven luciferase in osteoblasts – cell-based, Clone20 osteoblasts, firefly luciferase, cherry-picked, dose response (AID 624132).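 Further: firefly luciferase luminescence from reporter carrying the Shn3 3'UTR in osteoblasts.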 It is filed as functional.
Assay [10] is described as follows: non-specific 3'UTR reporter inhibition in Clone20-Shn3RL – cell-based, Renilla luciferase, cherry-picked, counter-screen for Shn3 inhibitor project, dose response (AID 624133). The format is functional. (A counterscreen serves to expose hits that act by an unwanted route or on another target.)
The nature of assay [11]: loss of viability in HepG2 cells – cell-based, CellTiter-Glo, cherry-picked, cytotoxicity control for Shn3 inhibitor project, dose response (AID 624134). It is filed as functional. On the technique in general: ATP-based viability assays read luminescence as a measure of living cells.
A short description of assay [12]: blockers of HIV-1 ZM109 envelope-driven cell-cell fusion – HeLa effector, CEM target cells, luciferase, cherry-pick, dose response (AID 652058).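 Further: luciferase signal from HIV-1 Env mediated cell-cell fusion of effector and target cells.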 It is filed as functional, cell-based.
The target in assay [13] is T5, Calpain-2 catalytic subunit (Sus scrofa, UniProt P43367).
T5 sequence (P43367 whole entry): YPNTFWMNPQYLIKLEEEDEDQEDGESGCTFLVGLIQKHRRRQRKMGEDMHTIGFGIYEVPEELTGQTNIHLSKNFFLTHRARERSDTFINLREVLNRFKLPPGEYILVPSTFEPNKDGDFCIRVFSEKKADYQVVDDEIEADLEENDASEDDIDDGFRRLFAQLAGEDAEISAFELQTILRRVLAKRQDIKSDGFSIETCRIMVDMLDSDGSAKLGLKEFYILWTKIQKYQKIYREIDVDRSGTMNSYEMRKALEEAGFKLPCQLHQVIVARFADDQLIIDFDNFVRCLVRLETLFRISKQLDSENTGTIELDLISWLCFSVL
In words: m-calpain protease blockers, concentration series – biochemical, fluorogenic peptide substrate, dose response (AID 1420). It is filed as functional.

Assay [14] in a line: viability of uninfected HEp-2 cells – cell-based, HTS, cytotoxicity control for RSV inhibitor project, dose response (AID 2410). The format is functional. The note with it: human respiratory syncytial virus.
The nature of assay [15]: viability of PTEN-deleted HCT116 cells – cell-based, HCT116 PTEN knockout, dose response (AID 1047).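 Further: HCT116 colon tumor cells with PTEN knocked out; cells exposed to compound for 60 hours before readout; potency for loss of cell viability measured by luminescence.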 It is filed as functional.
Assay [16] can be described thus: viability of HCT116 lacking mutant beta-catenin – cell-based, human colon tumor, dose response (AID 1045).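 Further: HCT116 colon tumor cells with beta catenin knocked out; cells exposed to compound for 60 hours.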 The format is functional.

Activity calls are given as the source filed them. A value given as a limit tells only on which side of the number the result lay.

T2 sequence (P11940 whole entry, the tested form may be a part): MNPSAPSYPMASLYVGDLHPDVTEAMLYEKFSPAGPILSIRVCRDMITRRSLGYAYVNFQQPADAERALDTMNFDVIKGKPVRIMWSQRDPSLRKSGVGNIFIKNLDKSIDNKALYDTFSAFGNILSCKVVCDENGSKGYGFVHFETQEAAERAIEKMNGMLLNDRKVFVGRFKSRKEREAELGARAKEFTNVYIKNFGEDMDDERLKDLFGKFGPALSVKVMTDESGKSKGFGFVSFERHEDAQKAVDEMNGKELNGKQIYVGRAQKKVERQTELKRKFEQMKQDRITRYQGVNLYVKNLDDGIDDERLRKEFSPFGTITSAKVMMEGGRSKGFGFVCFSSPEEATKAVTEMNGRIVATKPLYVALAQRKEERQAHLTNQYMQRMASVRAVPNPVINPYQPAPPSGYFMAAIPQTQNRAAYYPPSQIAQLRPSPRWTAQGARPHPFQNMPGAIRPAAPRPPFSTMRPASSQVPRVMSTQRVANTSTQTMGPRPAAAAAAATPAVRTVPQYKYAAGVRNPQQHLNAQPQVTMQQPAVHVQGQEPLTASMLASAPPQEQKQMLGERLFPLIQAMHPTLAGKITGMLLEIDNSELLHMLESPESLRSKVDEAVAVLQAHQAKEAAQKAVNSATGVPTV
Voltage-dependent T-type calcium channel subunit alpha-1H, sequence (O95180 whole entry): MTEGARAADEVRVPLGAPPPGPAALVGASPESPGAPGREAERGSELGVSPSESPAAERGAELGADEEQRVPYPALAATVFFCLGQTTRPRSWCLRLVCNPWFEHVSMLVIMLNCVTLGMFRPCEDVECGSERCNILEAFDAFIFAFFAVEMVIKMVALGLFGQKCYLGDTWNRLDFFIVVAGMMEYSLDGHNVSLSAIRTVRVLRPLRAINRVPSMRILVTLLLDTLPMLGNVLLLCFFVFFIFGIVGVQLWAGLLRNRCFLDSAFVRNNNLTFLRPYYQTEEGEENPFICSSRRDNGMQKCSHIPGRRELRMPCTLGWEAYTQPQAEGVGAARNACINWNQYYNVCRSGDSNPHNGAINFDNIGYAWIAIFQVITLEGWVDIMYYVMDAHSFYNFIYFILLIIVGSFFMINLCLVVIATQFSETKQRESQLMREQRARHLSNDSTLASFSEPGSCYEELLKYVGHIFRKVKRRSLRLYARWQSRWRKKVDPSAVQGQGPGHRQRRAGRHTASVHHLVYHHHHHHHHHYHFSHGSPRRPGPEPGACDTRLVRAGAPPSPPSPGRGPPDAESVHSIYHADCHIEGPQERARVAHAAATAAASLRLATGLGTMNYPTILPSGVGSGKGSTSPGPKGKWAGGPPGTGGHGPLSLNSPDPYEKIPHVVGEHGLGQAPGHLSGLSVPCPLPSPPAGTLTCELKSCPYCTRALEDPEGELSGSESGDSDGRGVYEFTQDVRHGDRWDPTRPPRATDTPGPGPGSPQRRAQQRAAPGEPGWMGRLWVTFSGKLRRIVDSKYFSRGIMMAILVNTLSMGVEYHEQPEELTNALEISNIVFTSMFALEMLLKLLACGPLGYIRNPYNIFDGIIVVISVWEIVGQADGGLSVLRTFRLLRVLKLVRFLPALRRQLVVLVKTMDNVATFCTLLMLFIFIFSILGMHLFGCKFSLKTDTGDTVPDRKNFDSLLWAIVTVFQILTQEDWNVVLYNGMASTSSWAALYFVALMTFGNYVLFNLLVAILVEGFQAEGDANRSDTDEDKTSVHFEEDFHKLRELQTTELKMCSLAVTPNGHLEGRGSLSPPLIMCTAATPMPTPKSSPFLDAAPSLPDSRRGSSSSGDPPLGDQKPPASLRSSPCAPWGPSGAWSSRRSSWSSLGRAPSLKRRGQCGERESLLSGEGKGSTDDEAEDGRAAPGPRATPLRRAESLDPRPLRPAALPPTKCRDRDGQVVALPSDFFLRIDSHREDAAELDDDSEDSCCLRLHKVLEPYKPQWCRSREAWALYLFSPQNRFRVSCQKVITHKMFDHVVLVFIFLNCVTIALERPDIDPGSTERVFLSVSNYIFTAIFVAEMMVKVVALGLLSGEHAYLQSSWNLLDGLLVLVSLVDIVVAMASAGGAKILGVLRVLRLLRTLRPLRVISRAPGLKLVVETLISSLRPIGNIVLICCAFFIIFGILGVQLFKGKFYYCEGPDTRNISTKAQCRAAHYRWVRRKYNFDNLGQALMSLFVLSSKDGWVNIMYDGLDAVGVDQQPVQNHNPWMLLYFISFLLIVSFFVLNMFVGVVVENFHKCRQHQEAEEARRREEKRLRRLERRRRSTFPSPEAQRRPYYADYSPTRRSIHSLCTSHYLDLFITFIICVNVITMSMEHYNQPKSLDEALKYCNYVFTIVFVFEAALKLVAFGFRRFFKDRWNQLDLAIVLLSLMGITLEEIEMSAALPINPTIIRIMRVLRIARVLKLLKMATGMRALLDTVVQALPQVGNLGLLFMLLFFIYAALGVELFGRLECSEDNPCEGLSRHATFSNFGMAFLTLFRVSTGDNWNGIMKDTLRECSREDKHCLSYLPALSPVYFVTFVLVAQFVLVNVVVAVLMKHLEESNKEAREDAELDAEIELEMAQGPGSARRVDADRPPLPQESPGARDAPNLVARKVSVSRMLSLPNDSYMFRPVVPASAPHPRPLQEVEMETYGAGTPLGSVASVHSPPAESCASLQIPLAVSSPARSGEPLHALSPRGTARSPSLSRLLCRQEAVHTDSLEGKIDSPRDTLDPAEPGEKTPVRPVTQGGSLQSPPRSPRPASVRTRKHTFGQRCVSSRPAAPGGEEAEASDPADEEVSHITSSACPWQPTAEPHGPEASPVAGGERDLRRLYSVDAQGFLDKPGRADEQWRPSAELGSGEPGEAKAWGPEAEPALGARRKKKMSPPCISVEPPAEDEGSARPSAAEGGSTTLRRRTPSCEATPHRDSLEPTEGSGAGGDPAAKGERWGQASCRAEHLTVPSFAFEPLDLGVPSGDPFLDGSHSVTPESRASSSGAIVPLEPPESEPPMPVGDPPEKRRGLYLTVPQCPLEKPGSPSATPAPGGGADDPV
Cytochrome P450 3A4, sequence (P08684 whole entry): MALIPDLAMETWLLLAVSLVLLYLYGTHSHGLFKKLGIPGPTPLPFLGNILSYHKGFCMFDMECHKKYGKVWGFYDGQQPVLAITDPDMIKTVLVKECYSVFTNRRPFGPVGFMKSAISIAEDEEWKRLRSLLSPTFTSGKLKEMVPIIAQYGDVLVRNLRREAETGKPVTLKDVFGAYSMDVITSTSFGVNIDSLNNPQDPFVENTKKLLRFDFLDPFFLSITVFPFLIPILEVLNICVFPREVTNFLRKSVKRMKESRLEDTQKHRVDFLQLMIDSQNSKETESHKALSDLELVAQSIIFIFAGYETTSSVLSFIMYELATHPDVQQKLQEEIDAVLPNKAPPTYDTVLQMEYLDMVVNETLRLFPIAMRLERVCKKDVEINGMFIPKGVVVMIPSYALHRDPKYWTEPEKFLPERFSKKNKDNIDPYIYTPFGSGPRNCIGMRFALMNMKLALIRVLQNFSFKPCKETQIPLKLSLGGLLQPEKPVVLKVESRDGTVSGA

Usually AC50 stands for the concentration giving half of the maximal activity seen. Regarding `NC(=O)c1cc([N+](=O)[O-])ccc1NCc1ccc(N)cc1`, the AC50 in assay [1] was 1.41 µM (active).
Broadly, the EC50 is the midpoint of the concentration-response curve. Take `O=C(c1cc2sccc2n1Cc1ccccc1)N1CCCc2ccccc21`: the EC50 in [2] is 5.98 µM (active).
Turning to `c1ccc2c(c1)nnn2Cc1nnc2sc(-c3ccc4c(c3)OCCO4)nn12`, the IC50 in assay [3] and in assay [4] was > 66 µM (inactive) throughout.
Turning to `Cc1ccc(NC(=O)c2cc(-c3ccc(C)c(C)c3O)n[nH]2)cc1C`, the IC50 in [5] is 8.08 µM (active).
As for `O=C(C1CCCN(S(=O)(=O)c2ccc(Cl)cc2)C1)N(Cc1cccs1)C1CC1` (stereo not drawn), the EC50 in assay [6] is > 195 µM (not active); in assay [2], 6.78 µM (active).
For the compound `N=c1c(C(=O)NCc2ccco2)cc2c(=O)n3ccccc3nc2n1CC1CCCO1` (stereo not drawn), the results for the IC50 in assay [3] and in [4] were > 66 µM (inactive) and 39.5 µM (inactive), respectively.
As to `N#CC(c1cccc(C(F)(F)F)c1)(c1ncc(C(F)(F)F)cc1Cl)N1CCOCC1` (stereo not drawn), the EC50 in [2] is 2.49 µM (active).
Turning to `Cc1cc(=O)oc2cc(NC(=O)c3ccc(OC(F)F)cc3)ccc12`, in [5], the IC50 is 10.2 µM (active).
Turning to `CCCc1nc2ccccc2n1CCOc1ccccc1`, in assay [2], the EC50 was 8.61 µM (active).
`Cc1nc(N)nc(S)c1CCCNc1ccccc1`: the IC50 in assay [3] and in [4] was > 66 µM (inactive) each time. For the same compound, the AC50 at Cytochrome P450 3A4 was 6.31 µM (inconclusive).
In the case of `Cn1c(CSc2nc3ccccc3s2)nc2ccccc21`, the EC50 in assay [7] was 43.2 µM (active); in [8] it was 2.94 µM (active); in the assay on H4 it was 19.9 µM (active); in assay [2], 17.4 µM (active).
`O=C(NC(Sc1ccc(Cl)cc1)C(=O)O)c1ccccc1` (stereo not drawn): the IC50 in assay [3] and in assay [4] was > 66 µM (inactive) in each case.
As for `COc1ccc(C(=O)OCC(=O)NCc2ccco2)cc1OC`, the IC50 in [5] is 9.73 µM (active).
Take `c1ccc(-c2noc(CSc3nnc(Cc4cccs4)n3-c3ccccc3)n2)cc1`: the EC50 in assay [2] was 4.16 µM (active).
Take `CN1/C(=C\C(=O)CN2C(=O)NC3(CCCCCC3)C2=O)C(C)(C)c2ccccc21`: in assay [2], the EC50 is 27.4 µM (active). Moreover, the AC50 in the assay on INS1 was 4.56 µM (active); in assay [9], 2.66 µM (active); in [10], 12.3 µM (active).
Take `CCN(CC)S(=O)(=O)c1ccc(N(C)Cc2ccc(C(F)(F)F)cc2)nc1`: the EC50 in assay [2] is 10.4 µM (active). The AC50 is 5.85 µM (active) in assay [9], 41.1 µM (active) in assay [11] and 25.9 µM (active) in [10].
For `O=C(C[C@H]1C[C@@H]2c3cc(NC(=O)Nc4ccc(F)cc4)ccc3O[C@@H]2[C@@H](CO)O1)NCC1CC1`, the AC50 in [12] is 41.4 µM (active).
`O=C(CN1CCCCCCC1)Nc1ccc(Cl)cc1Cl`: the IC50 in assay [13] is reported as 4.92 µM (not active).
Take `N#CCCN(C(=O)CSc1ccc2c(c1)OCCO2)c1ccccc1`: the IC50 in assay [3] and in [4] was > 66 µM (inactive) each time.
As usually defined, the CC50 is the concentration giving 50% cytotoxicity. Take `COc1cccc(Nc2nc(N)c([N+](=O)[O-])c(NCc3ccco3)n2)c1`: the CC50 in [14] is 15.8 µM (active). Further, the IC50 in assay [13] is recorded as 7.89 µM (not active).
As to `CCOC(=O)C1CCCN(C(=O)c2ccccc2SCCOC)C1` (stereo not drawn), the IC50 in [3] and in [4] was > 66 µM (inactive) throughout.
For `Cc1ccccc1Cn1c(=O)n(CC2CCC(C(=O)NCCc3ccccc3)CC2)c(=O)c2ccccc21` (stereo not drawn), the EC50 is 13.3 µM (active) in [15] and 17 µM (active) in assay [16]. Besides, the IC50 in assay [13] was 20.7 µM (not active).
Consider `CC1CC(C)CN(C(=O)Cn2c(=O)n(CCCCC(=O)NCc3ccco3)c(=O)c3ccccc32)C1` (stereo not drawn), for which the IC50 in assay [13] was > 50 µM (not active).

(Values after ChEMBL document CHEMBL1201862, “PubChem BioAssay data set” (2004).)
